Experimental findings from US12187696B2, “Urea motif containing compounds and derivatives thereof as antibacterial drugs” (Technische Universität München, priority 2016, dated 2025) are described below.

pIC50: −log10 of the molar value. In brackets after ≈: the same amount, converted by molar mass. Entries after “also recorded” stand apart in the source; their conditions may differ.

One series has as its system S. aureus Mu50. Put plainly: Minimal inhibitory concentration (MIC) assay. Format: cell-based. As to conditions: Staphylococcus aureus, B medium.
For series [1], the system named is Staphylococcus aureus DSM18827. As to the kind of experiment: Minimal inhibitory concentration (MIC) assay. Format: cell-based. The note with it: B medium.
In series [2] the test system is Staphylococcus aureus NCTC8325. Put plainly: Minimal inhibitory concentration (MIC) assay. In kind it is cell-based. As to conditions: for MIC: Staphylococcus aureus NCTC8325, B medium. The protocol: Minimum inhibitory concentrations (MICs) represent the lowest concentration of sample that will inhibit the visible growth of a microorganism after overnight incubation, and was obtained by a 96 well plate-based assay (Thermo Scientific) with serial dilutions of the probes tested. […] Bacteria were diluted in fresh medium to a concentration of 10^5 CFU/mL. In the case of all other bacteria species tested, fresh media was inoculated 1/10000 and directly used for testing. Diluted bacterial cultures (99 μL) were added to various concentrations of probe (1 μL of the respective stock in DMSO). A growth control containing DMSO (1 μL) and cultivated medium (99 μL) and a sterile control containing fresh medium (100 μL) were run on every 96 well plate in triplicates. After incubation at 37° C. with gentle shaking (200 rpm) for 24 h, the dilution series was analysed for microbial growth, usually indicated by turbidity and/or a pellet of bacteria at the bottom of the well. The lowest concentration in the dilution series at which no growth of bacteria could be observed by eye was defined as the minimum inhibitory concentration (MIC) of the probe. MIC values were determined by three independent experiments with at least triplicate runs for each concentration. […] Both compounds were tested against various bacterial strains. […] The assay was performed as described above.

In series [3] the test system is Staphylococcus aureus Bk95395. As to the kind of experiment: Minimal inhibitory concentration (MIC) assay. The note with it: Staphylococcus aureus Bk95395 (clinical isolate); B medium. In kind it is cell-based.
Series [4] has as its system Staphylococcus aureus Bk97296. Put plainly: Minimal inhibitory concentration (MIC) assay. In kind it is cell-based. The note with it: Staphylococcus aureus Bk97296 (clinical isolate); B medium.
For series [5], the system named is Staphylococcus aureus IS050678. Put plainly: Minimal inhibitory concentration (MIC) assay. Format: cell-based. The note with it: Staphylococcus aureus IS050678 (clinical isolate); B medium.
The test system of series [6] is Staphylococcus aureus IS050611. Put plainly: Minimal inhibitory concentration (MIC) assay. In kind it is cell-based. As to conditions: Staphylococcus aureus IS050611 (clinical isolate); B medium.
For series [7], the system named is Staphylococcus aureus VA417350. As to the kind of experiment: Minimal inhibitory concentration (MIC) assay. Format: cell-based. The note with it: Staphylococcus aureus VA417350 (clinical isolate); B medium.
The test system of series [8] is Staphylococcus aureus VA418879. As to the kind of experiment: Minimal inhibitory concentration (MIC) assay. Format: cell-based. As to conditions: Staphylococcus aureus VA418879 (clinical isolate); B medium.
The subject of series [9] is Staphylococcus aureus VA402923. Put plainly: Minimal inhibitory concentration (MIC) assay. Format: cell-based. The note with it: Staphylococcus aureus VA402923 (clinical isolate); B medium.
Series [10] relates to Staphylococcus aureus VA409044. Put plainly: Minimal inhibitory concentration (MIC) assay. The note with it: Staphylococcus aureus VA409044 (clinical isolate); B medium. In kind it is cell-based.
Series [11] concerns Staphylococcus aureus VA402525. As to the kind of experiment: Minimal inhibitory concentration (MIC) assay. Format: cell-based. As to conditions: Staphylococcus aureus VA402525 (clinical isolate); B medium.
In series [12] the test system is Mycobacterium tuberculosis H37Rv. As to the kind of experiment: Minimal inhibitory concentration (MIC) assay. In kind it is cell-based. As to conditions: 7H9 medium.
Another series has as its system Bacillus subtilis. As to the kind of experiment: Minimal inhibitory concentration (MIC) assay. Format: cell-based. As to conditions: LB medium.
The next series deals with Enterobacter aerogenes. As to the kind of experiment: Minimal inhibitory concentration (MIC) assay. Format: cell-based. The note with it: Klebsiella aerogenes, B medium.
Another series is described as follows: Plasma stability assay. In kind it is in vitro ADME, mouse. As to conditions: 10 μM, 37° C., up to 6 h (360 min), LC-MS. The protocol:
The in vitro stability was tested by a LC-MS based method. Mouse plasma was purchased from biowest (mouse plasma w/lithium heparin, sterile filtered S2162-010) and used as a 1:1 dilution with potassium phosphate buffer (0.1 M, pH 7.4). Final assay concentration of DMSO from compound stocks was 1%. AV1, a β-lactone with known low plasma stability, was used as positive control at a concentration of 50 μM. The compound stability test in plasma was initiated by the addition of 10 μM compound of interest (50 μM in the case of AV1) to 250 μL of diluted mouse plasma at 37° C. Directly after compound addition the reaction mixture was shortly mixed by vortexing and the first sample of 25 μL was withdrawn (time point 0 min). Every sample was quenched immediately by the addition 30 μL of pre-chilled acetonitrile. The reaction mixture was incubated at 37° C. with gentle shaking at 600 rpm. At certain time points (5, 10, 20, 30, 60, 120, 240, 360 min) additional samples (25 μL) were taken for every test compound, quenched as described and stored at −20° C. […] Quantitative LC-MS analysis was performed by LCQ-Fleet Ion Trap Mass Spectrometer equipped with an APCI ion source and a DionexHPLC system using a Waters Xbridge BEH130 C18 column (5 μM 4.6×100 mm). […] Plasma stability was determined in three independent experiments.

In a further series the test system is S. aureus NCTC 8325. Format: cell-based.
Series [13] deals with S. aureus NCTC 8325 persister cells. As to the kind of experiment: Persister cell assay I. In kind it is cell-based. The note with it: gentamicin-selected persisters in PBS; 70 h; 2.4 μM PK/X17-1-150, 24 μM sorafenib, 5 μg/mL ciprofloxacin.
For series [14] the test system is unchanged. As to the kind of experiment: Persister cell assay II. In kind it is cell-based. As to conditions: TSB, with or without 30 μg/mL oxacillin; 20 h or 70 h; 2.4 μM PK/X17-1-150 or PK/X17-4-011, 24 μM sorafenib or PK/X17-2-011, 5 μg/mL ciprofloxacin. The protocol: Persister cell assay II. Tryptic soy broth (50 mL in 250 mL culture flasks) was inoculated 1:1000 with overnight cultures of NCTC 8325 and grown at 37° C. and 200 rpm until an OD600 of 4 was reached or overnight (ON). Serial dilution were prepared and plated to determine the cell numbers in the inoculum. […]. […] After 20 h (A) or 70 h (B) of treatment, cells were harvested, washed two times with PBS (10000×g, 3 min), serially diluted and plated on agar plates for determination of surviving cell numbers.

As for `O=C(Nc1ccc2c(c1)OC(F)(F)O2)Nc1ccc(Cl)c(C(F)(F)F)c1` [Example 4, 1-(4-Chloro-3-(trifluoromethyl)phenyl)-3-(2,2-difluorobenzo[d][1,3]dioxol-5-yl)urea], the MIC (against S. aureus Mu50; in series [1]; in series [2]; in series [3]; in series [4]; in series [5]) was 0.3 µM (≈ 0.118 µg/mL) in each case. Moreover, the minimal inhibitory concentration (MIC) in series [6], in series [7], in [8], in series [9], in series [10] and in series [11] was 0.3 µM (≈ 0.118 µg/mL) in each case. For the same molecule, the minimal inhibitory concentration (MIC) – broadly, the smallest concentration in the dilution series that meets the test's criterion for growth inhibition – in series [12] was 2 µM (≈ 0.789 µg/mL); in the series with Bacillus subtilis, 1 µM (≈ 0.395 µg/mL); against Enterobacter aerogenes, more than 100 µM. Besides, the negative-log IC50 (pIC50) – broadly, the IC50 on a negative log10 scale, so that one unit is a factor of ten – in [2] (Staphylococcus aureus, NCTC8325, inhibition of bacterial growth of S. aureus NCTC 8325, obtained by MIC assay) is 6.52. Also, the “stability in mouse plasma” value in the series “Plasma stability assay” is on record as “excellent stability in plasma for several hours”. In addition, the “resistance development on serial passaging” value in the series with S. aureus NCTC 8325 (S. aureus NCTC 8325, subinhibitory levels, 27 days, listed as PK/X17-1-150) is recorded as “did not induce resistance; also recorded: no resistant development”. Besides, the “activity against S. aureus that developed resistance against sorafenib” value in the series with S. aureus NCTC 8325 (preliminary results) is given as “still active”. The “viable persister cells (CFU/mL) vs DMSO control” value in [13] and in series [14] was “significant reduction of viable cells” in each case.
Regarding `CNC(=O)c1cc(Oc2ccc(NC(=O)Nc3ccc(Cl)c(C(F)(F)F)c3)cc2)ccn1` [Sorafenib, reference compound], the minimum inhibitory concentration (MIC) against S. aureus Mu50 is 3 µM (≈ 1.39 µg/mL); in series [1], 3 µM (≈ 1.39 µg/mL); in series [2] it was 3 µM (≈ 1.39 µg/mL); in series [3], 5 µM (≈ 2.32 µg/mL); in [4], 5 µM (≈ 2.32 µg/mL); in series [5], 5 µM (≈ 2.32 µg/mL). The minimal inhibitory concentration (MIC) in series [6] came out at 3 µM (≈ 1.39 µg/mL); in [7] it was 5 µM (≈ 2.32 µg/mL); in [8], 5 µM (≈ 2.32 µg/mL); in series [9] it was 5 µM (≈ 2.32 µg/mL); in [10] it was 3 µM (≈ 1.39 µg/mL); in series [11], 5 µM (≈ 2.32 µg/mL). The minimum inhibitory concentration (MIC) was 25 µM (≈ 11.6 µg/mL) in series [12], 5 µM (≈ 2.32 µg/mL) with Bacillus subtilis and more than 100 µM in the series with Enterobacter aerogenes. The “stability in mouse plasma” value in the series “Plasma stability assay” was “excellent stability in plasma for several hours”. Further, in the series on S. aureus NCTC 8325 (serial passaging of S. aureus), the “first signs of lower sensitivity” value is given as not above 5 days. In the series with S. aureus NCTC 8325 (serial passaging, within the first 10 days), the “increase of minimal inhibitory concentration (factor)” value amounted to 40. The “viable persister cells (CFU/mL) vs DMSO control” value in series [13] and in series [14] was “significant reduction of viable cells” each time.
